According to ChEMBL document CHEMBL1201862, “PubChem BioAssay data set” (2004):
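Test compounds were applied to cells in 96-well plates for 48 hours at 5 doses. GI50 = concentration required for 50% inhibition of growth.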 The source made the active and inactive calls. Rule as the data show it: active = GI50 up to about 1.1 µM and inactive = higher.

How the values were obtained:
Assay in all cases: NCI tumour cell line growth inhibition, 48 h
CAKI-1 = system: CAKI-1
SK-MEL-28 = system: SK-MEL-28
EKVX = system: EKVX
SF-539 = system: SF-539
UACC-62 = system: UACC-62
M14 = system: M14
XF498 = system: XF498
KM12 = system: KM12
UACC-257 = system: UACC-257
RXF 393 = system: RXF 393
HT-29 = system: HT-29
DLD-1 = system: DLD-1
DMS-114 = system: DMS-114
HCC 2998 = system: HCC 2998
MOLT-4 = system: MOLT-4
A498 = system: A498
A549 = system: A549
ACHN = system: ACHN
OVCAR-8 = system: OVCAR-8
SN12C = system: SN12C
SNB-75 = system: SNB-75
LXFL 529 = system: LXFL 529
OVCAR-4 = system: OVCAR-4
HCT-15 = system: HCT-15
NCI-H522 = system: NCI-H522
M19-MEL = system: M19-MEL
DMS-273 = system: DMS-273
HOP-92 = system: HOP-92
SK-MEL-5 = system: SK-MEL-5
Malme-3M = system: Malme-3M
HCT-116 = system: HCT-116
SF-268 = system: SF-268
TK-10 = system: TK-10
NCI-H23 = system: NCI-H23
NCI-H460 = system: NCI-H460
SNB-19 = system: SNB-19
OVCAR-3 = system: OVCAR-3
U-251 = system: U-251
HOP-62 = system: HOP-62
SK-OV-3 = system: SK-OV-3
HL-60 = system: HL-60
OVCAR-5 = system: OVCAR-5
IGROV-1 = system: IGROV-1
SK-MEL-2 = system: SK-MEL-2
KM-20L2 = system: KM-20L2
COLO 205 = system: COLO 205
SR = system: SR
RXF 631 = system: RXF 631
CCRF-CEM = system: CCRF-CEM
HOP-18 = system: HOP-18
SF-295 = system: SF-295
NCI-H226 = system: NCI-H226
LOX IMVI = system: LOX IMVI
RPMI-8226 = system: RPMI-8226
786-0 = system: 786-0
SNB-78 = system: SNB-78
K562 = system: K562
UO-31 = system: UO-31
SW-620 = system: SW-620

For CC(C)(C)c1cc(Oc2ccc(C#N)c(C#N)c2)cc(C(C)(C)C)c1, which GI50 (CAKI-1) is on record?
The GI50 was > 100 µM (inactive).

And the GI50 (SK-MEL-28)?
The GI50 was > 100 µM (inactive).

What about the GI50 (EKVX) of the same molecule?
Its GI50 is > 100 µM (inactive).

What about the GI50 (SF-539) of the same molecule?
Its GI50 is > 100 µM (inactive).

And the GI50 (UACC-62)?
Its GI50 is > 100 µM (inactive).

And the GI50 (M14)?
Its GI50 is > 100 µM (inactive).

What about the GI50 (XF498) of the same molecule?
The GI50 was > 100 µM (inactive).

What about the GI50 (KM12) of the same molecule?
The GI50 was > 100 µM (inactive).

And the GI50 (UACC-257)?
The GI50 was > 100 µM (inactive).

What about the GI50 (RXF 393) of the same molecule?
The GI50 was > 100 µM (inactive).

And the GI50 (HT-29)?
The GI50 was > 100 µM (inactive).

What about the GI50 (DLD-1) of the same molecule?
Its GI50 is > 100 µM (inactive).

What about the GI50 (DMS-114) of the same molecule?
The GI50 was 42.1 µM (inactive).

And the GI50 (HCC 2998)?
The GI50 was > 100 µM (inactive).

What about the GI50 (MOLT-4) of the same molecule?
The GI50 was > 100 µM (inactive).

And the GI50 (A498)?
The GI50 was > 100 µM (inactive).

And the GI50 (A549)?
Its GI50 is > 100 µM (inactive).

What about the GI50 (ACHN) of the same molecule?
The GI50 was > 100 µM (inactive).

What about the GI50 (OVCAR-8) of the same molecule?
Its GI50 is > 100 µM (inactive).

And the GI50 (SN12C)?
The GI50 was > 100 µM (inactive).

And the GI50 (SNB-75)?
The GI50 was > 100 µM (inactive).

And the GI50 (LXFL 529)?
Its GI50 is > 100 µM (inactive).

What about the GI50 (OVCAR-4) of the same molecule?
Its GI50 is > 100 µM (inactive).

And the GI50 (HCT-15)?
Its GI50 is 48.3 µM.

And the GI50 (NCI-H522)?
The GI50 was 36.1 µM (inactive).

And the GI50 (M19-MEL)?
The GI50 was > 100 µM (inactive).

What about the GI50 (DMS-273) of the same molecule?
Its GI50 is 14.1 µM (inactive).

And the GI50 (HOP-92)?
Its GI50 is > 100 µM (inactive).

What about the GI50 (SK-MEL-5) of the same molecule?
The GI50 was > 100 µM (inactive).

What about the GI50 (Malme-3M) of the same molecule?
The GI50 was > 100 µM (inactive).

What about the GI50 (HCT-116) of the same molecule?
Its GI50 is 68.1 µM (inactive).

And the GI50 (SF-268)?
Its GI50 is > 100 µM (inactive).

What about the GI50 (TK-10) of the same molecule?
Its GI50 is > 100 µM (inactive).

What about the GI50 (NCI-H23) of the same molecule?
The GI50 was > 100 µM (inactive).

And the GI50 (NCI-H460)?
The GI50 was 39.9 µM (inactive).

And the GI50 (SNB-19)?
The GI50 was > 100 µM (inactive).

What about the GI50 (OVCAR-3) of the same molecule?
The GI50 was > 100 µM (inactive).

And the GI50 (U-251)?
The GI50 was 85.5 µM (inactive).

What about the GI50 (HOP-62) of the same molecule?
Its GI50 is > 100 µM (inactive).

What about the GI50 (SK-OV-3) of the same molecule?
The GI50 was > 100 µM (inactive).

And the GI50 (HL-60)?
The GI50 was > 100 µM (inactive).

What about the GI50 (OVCAR-5) of the same molecule?
Its GI50 is > 100 µM (inactive).

And the GI50 (IGROV-1)?
The GI50 was > 100 µM (inactive).

What about the GI50 (SK-MEL-2) of the same molecule?
The GI50 was > 100 µM (inactive).

And the GI50 (KM-20L2)?
Its GI50 is > 100 µM (inactive).

And the GI50 (COLO 205)?
Its GI50 is > 100 µM (inactive).

What about the GI50 (SR) of the same molecule?
Its GI50 is 19.8 µM (inactive).

And the GI50 (RXF 631)?
The GI50 was 31 µM (inactive).

And the GI50 (CCRF-CEM)?
The GI50 was 38.3 µM (inactive).

And the GI50 (HOP-18)?
The GI50 was > 100 µM (inactive).

What about the GI50 (SF-295) of the same molecule?
The GI50 was > 100 µM (inactive).

And the GI50 (NCI-H226)?
The GI50 was > 100 µM (inactive).

And the GI50 (LOX IMVI)?
Its GI50 is 33.4 µM (inactive).

What about the GI50 (RPMI-8226) of the same molecule?
The GI50 was > 100 µM (inactive).

What about the GI50 (786-0) of the same molecule?
Its GI50 is 90.2 µM (inactive).

What about the GI50 (SNB-78) of the same molecule?
The GI50 was > 100 µM (inactive).

And the GI50 (K562)?
Its GI50 is 83.2 µM (inactive).

And the GI50 (UO-31)?
The GI50 was > 100 µM (inactive).

With COc1ccc(C2=Nc3ccccc3N=C(SC)C2)cc1 as the molecule, how does the GI50 (CAKI-1) read?
Its GI50 is 46.8 µM (inactive).

And the GI50 (SK-MEL-28)?
The GI50 was > 100 µM (inactive).

And the GI50 (EKVX)?
Its GI50 is 41 µM (inactive).

And the GI50 (SF-539)?
Its GI50 is > 100 µM (inactive).

What about the GI50 (UACC-62) of the same molecule?
Its GI50 is > 100 µM (inactive).

And the GI50 (M14)?
Its GI50 is 59.7 µM (inactive).

What about the GI50 (XF498) of the same molecule?
Its GI50 is 37.8 µM (inactive).

And the GI50 (KM12)?
The GI50 was 27.5 µM (inactive).

And the GI50 (UACC-257)?
The GI50 was 22.1 µM (inactive).

What about the GI50 (RXF 393) of the same molecule?
Its GI50 is 62.5 µM (inactive).

What about the GI50 (HT-29) of the same molecule?
Its GI50 is 38.5 µM (inactive).

What about the GI50 (SW-620) of the same molecule?
The GI50 was 16.9 µM (inactive).

And the GI50 (DLD-1)?
Its GI50 is 42.8 µM (inactive).

And the GI50 (DMS-114)?
The GI50 was 44.1 µM (inactive).

And the GI50 (HCC 2998)?
Its GI50 is 28.7 µM (inactive).

What about the GI50 (MOLT-4) of the same molecule?
The GI50 was 25.5 µM (inactive).

What about the GI50 (A498) of the same molecule?
Its GI50 is > 100 µM (inactive).

What about the GI50 (A549) of the same molecule?
Its GI50 is 95.1 µM (inactive).

What about the GI50 (ACHN) of the same molecule?
Its GI50 is 69.8 µM (inactive).

What about the GI50 (OVCAR-8) of the same molecule?
Its GI50 is 59.3 µM (inactive).

And the GI50 (SN12C)?
The GI50 was 66.7 µM (inactive).

What about the GI50 (SNB-75) of the same molecule?
Its GI50 is 74 µM (inactive).

What about the GI50 (LXFL 529) of the same molecule?
Its GI50 is 46.1 µM (inactive).

What about the GI50 (OVCAR-4) of the same molecule?
Its GI50 is 48.5 µM (inactive).

And the GI50 (HCT-15)?
The GI50 was 33.7 µM.

And the GI50 (NCI-H522)?
Its GI50 is 22.9 µM (inactive).

What about the GI50 (M19-MEL) of the same molecule?
Its GI50 is 39.8 µM (inactive).

What about the GI50 (DMS-273) of the same molecule?
The GI50 was 73.6 µM (inactive).

What about the GI50 (HOP-92) of the same molecule?
Its GI50 is 15.6 µM (inactive).

And the GI50 (SK-MEL-5)?
The GI50 was 39.8 µM (inactive).

And the GI50 (Malme-3M)?
Its GI50 is > 100 µM (inactive).

What about the GI50 (HCT-116) of the same molecule?
Its GI50 is 50.4 µM (inactive).

And the GI50 (SF-268)?
The GI50 was > 100 µM (inactive).

What about the GI50 (TK-10) of the same molecule?
The GI50 was 40.7 µM (inactive).

And the GI50 (NCI-H23)?
The GI50 was 32.8 µM (inactive).

And the GI50 (NCI-H460)?
The GI50 was 24.5 µM (inactive).

And the GI50 (SNB-19)?
Its GI50 is > 100 µM (inactive).

What about the GI50 (OVCAR-3) of the same molecule?
The GI50 was 54.1 µM (inactive).

And the GI50 (U-251)?
Its GI50 is 32.2 µM (inactive).

And the GI50 (HOP-62)?
Its GI50 is > 100 µM (inactive).

What about the GI50 (SK-OV-3) of the same molecule?
Its GI50 is > 100 µM (inactive).

What about the GI50 (HL-60) of the same molecule?
Its GI50 is 16.3 µM (inactive).

What about the GI50 (OVCAR-5) of the same molecule?
Its GI50 is 44 µM (inactive).

And the GI50 (IGROV-1)?
The GI50 was > 100 µM (inactive).

What about the GI50 (SK-MEL-2) of the same molecule?
The GI50 was 21.8 µM (inactive).

And the GI50 (KM-20L2)?
Its GI50 is 41.3 µM (inactive).

And the GI50 (COLO 205)?
The GI50 was 51.3 µM (inactive).

And the GI50 (SR)?
The GI50 was 25.3 µM (inactive).

And the GI50 (RXF 631)?
Its GI50 is 47 µM (inactive).

What about the GI50 (CCRF-CEM) of the same molecule?
The GI50 was 13.2 µM (inactive).

What about the GI50 (HOP-18) of the same molecule?
The GI50 was > 100 µM (inactive).

And the GI50 (SF-295)?
Its GI50 is 77.3 µM (inactive).

What about the GI50 (NCI-H226) of the same molecule?
The GI50 was > 100 µM (inactive).

And the GI50 (LOX IMVI)?
Its GI50 is 16.9 µM (inactive).

And the GI50 (786-0)?
The GI50 was 38.6 µM (inactive).

What about the GI50 (SNB-78) of the same molecule?
The GI50 was > 100 µM (inactive).

What about the GI50 (K562) of the same molecule?
The GI50 was 20.8 µM (inactive).

What about the GI50 (UO-31) of the same molecule?
The GI50 was 47.3 µM (inactive).
